Literature values, collected in PubChem BioAssay AID1259409 (Chemical Carcinogenesis Research Information System (CCRIS), 2018).

Test system: rodent chemically induced tumor inhibition, incidence and multiplicity
Test: CCRIS tumor inhibitor studies

**Q.** With `CC(=O)O[C@@H]1[C@H]2[C@@H](OC(=O)c3ccccc3)[C@@H](OC(=O)c3ccccc3)[C@]3(C)[C@@H](OC(=O)c4ccccc4)[C@@H](OC(=O)c4ccccc4)C[C@@H](C)[C@@]13OC2(C)C` as the molecule, how does the “tumour outcome (control, treated, inhibition, significance)” value (Carcinogen: 7,12-DIMETHYLBENZ[A]ANTHRACENE, 57-97-6, Dose [Inhibitor]: 0, 85 NMOL IN 0.1 ML ACETONE 2/WK APPLIED 1 HR POST EACH PROMOTER DOSE BEGINNING 1 WK POST CARCINOGEN DOSE AND CONTINUIN, Route [Inhibitor]: DERMAL, Species: MOUSE, Strain/Sex: ICR/FEMALE, Target Tissue: Type of Lesion: SKIN: TUMOR, Dose [Carcinogen]: 390 NMOL IN 0.1 ML ACETONE ONCE, Promoter: 12-O-TETRADECANOYLPHORBOL-13-ACETATE, 16561-29-8) read?
**A.** 100%, 52%, 48%, not calculated

**Q.** What about the “tumour outcome (control, treated, inhibition, significance)” value (Carcinogen: 7,12-DIMETHYLBENZ[A]ANTHRACENE, 57-97-6, Dose [Inhibitor]: 0, 85 NMOL IN 0.1 ML ACETONE 2/WK APPLIED 1 HR PRIOR TO EACH PROMOTER DOSE BEGINNING 1 WK POST CARCINOGEN DOSE AND CONTI, Route [Inhibitor]: DERMAL, Species: MOUSE, Strain/Sex: ICR/FEMALE, Target Tissue: Type of Lesion: SKIN: TUMOR, Dose [Carcinogen]: 390 NMOL IN 0.1 ML ACETONE ONCE, Promoter: 12-O-TETRADECANOYLPHORBOL-13-ACETATE, 16561-29-8) of the same molecule?
**A.** 100%, 86%, 14%, not calculated

**Q.** What does the source list for `Cc1cc2nc3c(=O)[nH]c(=O)nc-3n(C[C@H](O)[C@H](O)[C@H](O)CO)c2cc1C`?
**A.** tumour outcome (control, treated, inhibition, significance) (Carcinogen: 7,12-DIMETHYLBENZ[A]ANTHRACENE, 57-97-6, Dose [Inhibitor]: 2 MG IN DRINKING WATER DAILY STARTING 4 WK BEFORE CARCINOGEN TREATMENT AND CONTINUING FOR DURATION OF THE STUDY (STUDY D, Route [Inhibitor]: ORAL, Species: MOUSE, Strain/Sex: 101/MALE, FEMALE, Target Tissue: Type of Lesion: SKIN: PAPILLOMA, Dose [Carcinogen]: 225 UG IN 0.15 ML ACETONE ONCE, Promoter: CROTON OIL, 8001-28-3): 17/19 (89%), 19/19 (100%), -12%, not calculated; tumour outcome (control, treated, inhibition, significance) (Carcinogen: BENZO[A]PYRENE, 50-32-8, Dose [Inhibitor]: 0.2% IN DIET DAILY STARTING 4 WK BEFORE START OF CARCINOGEN TREATMENT AND CONTINUING FOR DURATION OF STUDY (STUDY DURATI, Route [Inhibitor]: ORAL, Species: MOUSE, Strain/Sex: 101/MALE, FEMALE, Target Tissue: Type of Lesion: SKIN: TUMOR (BENIGN, MALIGNANT), Dose [Carcinogen]: 0.2 ML OF 0.025% SOLUTION IN ACETONE 2/WK FOR 23 WK STARTING 4 WK AFTER STAR OF AGENT TREATMENT, Promoter: NONE USED): 21/30 (70%), 25/28 (89%), -27%, not calculated; tumour outcome (control, treated, inhibition, significance) (Carcinogen: BENZO[A]PYRENE, 50-32-8, Dose [Inhibitor]: 0.25 MG 2/WK FOR 24 WK STARTING 4 WK BEFORE START OF CARCINOGEN TREATMENT AN D CONTINUING FOR DURATION OF STUDY (STUDY D, Route [Inhibitor]: SUBCUTANEOUS, Species: MOUSE, Strain/Sex: 101/MALE, FEMALE, Target Tissue: Type of Lesion: SKIN: MALIGNANT TUMOR, Dose [Carcinogen]: 0.2 ML OF 0.25% 2/WK FOR 20 WK, Promoter: NONE USED): 12/18 (67%), 8/19 (42%), 37%, not calculated; tumour outcome (control, treated, inhibition, significance) (Carcinogen: BENZO[A]PYRENE, 50-32-8, Dose [Inhibitor]: 0.6% IN DIET DAILY STARTING 4 WK BEFORE START OF CARCINOGEN TREATMENT AND CONTINUING FOR DURATION OF STUDY (STUDY DURATI, Route [Inhibitor]: ORAL, Species: MOUSE, Strain/Sex: 101/MALE, FEMALE, Target Tissue: Type of Lesion: SKIN: TUMOR (BENIGN, MALIGNANT), Dose [Carcinogen]: 0.2 ML OF 0.025% SOLUTION IN ACETONE 2/WK FOR 23 WK, Promoter: NONE USED): 21/30 (70%), 32/37 (86%), -23%, not calculated; tumour outcome (control, treated, inhibition, significance) (Carcinogen: BENZO[A]PYRENE, 50-32-8, Dose [Inhibitor]: 2.5 MG 2/WK FOR 24 WK STARTING 4 WK BEFORE START OF CARCINOGEN TREATMENT AND CONTINUING FOR DURATION OF STUDY (STUDY DUR, Route [Inhibitor]: SUBCUTANEOUS, Species: MOUSE, Strain/Sex: 101/MALE, FEMALE, Target Tissue: Type of Lesion: SKIN: PAPILLOMA, Dose [Carcinogen]: 0.2 ML OF 0.25% 2/WK FOR 20 WK, Promoter: NONE USED): 13/18 (72%), 8/19 (42%), 42%, not calculated; tumour outcome (control, treated, inhibition, significance) (Carcinogen: UV IRRADIATION, Dose [Inhibitor]: 15 MG/ML DRINKING WATER DAILY FOR DURATION OF STUDY (STUDY DURATION: 11 MO), Route [Inhibitor]: ORAL, Species: MOUSE, Strain/Sex: HR-HAIRLESS/MALE, Target Tissue: Type of Lesion: SKIN: SQUAMOUS CELL CARCINOMA, Dose [Carcinogen]: 5 MIN/D 6 D/WK FOR DURATION OF STUDY, Promoter: NONE USED): 6/6 (100%), 6/6 (100%), 0%, not significant; tumour outcome (control, treated, inhibition, significance) (Carcinogen: UV IRRADIATION, Dose [Inhibitor]: 15 MG/ML PROPYLENE GLYCOL DAILY FOR DURATION OF STUDY (STUDY DURATION: 11 MO), Route [Inhibitor]: DERMAL, Species: MOUSE, Strain/Sex: HR-HAIRLESS/MALE, Target Tissue: Type of Lesion: SKIN: SQUAMOUS CELL CARCINOMA, Dose [Carcinogen]: 5 MIN/D 6 D/WK FOR DURATION OF STUDY, Promoter: NONE USED): 6/6 (100%), 7/7 (100%), 0%, not significant

**Q.** Which “tumour outcome (control, treated, inhibition, significance)” value (Carcinogen: 4-(METHYLNITROSAMINO)-1-(3-PYRIDYL-1-BUTANONE, 64091-91-4, Dose [Inhibitor]: 0, 263 MG/KG IN DIET FOR 25 WK BEGINNING 2 WK PRIOR TO CARCINOGEN TREATMENT (STUDY DURATION: 25 WK), Route [Inhibitor]: ORAL, Species: MOUSE, Strain/Sex: STRAIN-A/FEMALE, Target Tissue: Type of Lesion: FORESTOMACH: TUMOR, Dose [Carcinogen]: 9.1 MG IN DRINKING WATER FOR 7 WK, Promoter: NONE USED) does the source give for `CC(C)Cc1ccc(C(C)C(=O)O)cc1` (stereo unspecified) here?
**A.** 7/25 (28%), 0/25 (0%), 100%, p<0.01

**Q.** What about the “tumour outcome (control, treated, inhibition, significance)” value (Carcinogen: AZOXYMETHANE, 25843-45-2, Dose [Inhibitor]: 0, 400 PPM IN DIET BEGINNING 1 WK PRIOR TO CARCINOGEN TREATMENT FOR DURATION OF STUDY (STUDY DURATION: 54 WK), Route [Inhibitor]: ORAL, Species: RAT, Strain/Sex: F344/MALE, Target Tissue: Type of Lesion: COLON: ADENOCARCINOMA, Dose [Carcinogen]: 15 MG/KG/BW 1/WK FOR 2 WK, Promoter: NONE USED) of the same molecule?
**A.** 58%, 33%, 43%, p<0.05

**Q.** What about the “tumour outcome (control, treated, inhibition, significance)” value (Carcinogen: AZOXYMETHANE, 25843-45-2, Dose [Inhibitor]: 0, 200 PPM IN DIET BEGINNING 1 WK PRIOR TO CARCINOGEN TREATMENT FOR DURATION OF STUDY (STUDY DURATION: 54 WK), Route [Inhibitor]: ORAL, Species: RAT, Strain/Sex: F344/MALE, Target Tissue: Type of Lesion: COLON: ADENOCARCINOMA, Dose [Carcinogen]: 15 MG/KG/BW 1/WK FOR 2 WK, Promoter: NONE USED) of the same molecule?
**A.** 58%, 41%, 29%, not calculated

**Q.** And the “tumour outcome (control, treated, inhibition, significance)” value (Carcinogen: AZOXYMETHANE, 25843-45-2, Dose [Inhibitor]: 0, 200 PPM IN DIET BEGINNING 1 WK PRIOR TO CARCINOGEN TREATMENT FOR DURATION OF STUDY (STUDY DURATION: 54 WK), Route [Inhibitor]: ORAL, Species: RAT, Strain/Sex: F344/MALE, Target Tissue: Type of Lesion: COLON: ADENOMA, Dose [Carcinogen]: 15 MG/KG/BW 1/WK FOR 2 WK, Promoter: NONE USED)?
**A.** 6%, 6%, 0%, not calculated

**Q.** And the outcome (Carcinogen: AZOXYMETHANE, 25843-45-2, Dose [Inhibitor]: 0, 400 PPM IN DIET BEGINNING 1 WK PRIOR TO CARCINOGEN TREATMENT FOR DURATION OF STUDY (STUDY DURATION: 54 WK), Route [Inhibitor]: ORAL, Species: RAT, Strain/Sex: F344/MALE, Target Tissue: Type of Lesion: COLON: ADENOMA, Dose [Carcinogen]: 15 MG/KG/BW 1/WK FOR 2 WK, Promoter: NONE USED)?
**A.** 6%, 0,%, 100%, not calculated

**Q.** For `CC(C)C(NC(=O)[C@@H]1CCCN1C(=O)[C@@H](NC(=O)c1ccc(C(=O)NS(=O)(=O)c2ccc(Br)cc2)cc1)C(C)C)C(=O)C(F)(F)F` (stereo partly specified), which “tumour outcome (control, treated, inhibition, significance)” value (Carcinogen: UV-B IRRADIATION, Dose [Inhibitor]: 0, 125 UG IN DMSO ADMINISTERED IMMEDIATELY PRIOR TO UV-B IRRADIATION AND 4 AND 24 HR POST IRRADIATION, CYCLE REPEATED 3/, Route [Inhibitor]: SUBCUTANEOUS, Species: MOUSE, Strain/Sex: SKH-1/FEMALE, Target Tissue: Type of Lesion: SKIN: CARCINOMA, Dose [Carcinogen]: 0.09 J/CM2 3/WK, Promoter: NONE USED) is on record?
**A.** 5/5 (100%), 2/5 (40%), 60%, not calculated

**Q.** What about the “tumour outcome (control, treated, inhibition, significance)” value (Carcinogen: UV-B IRRADIATION, Dose [Inhibitor]: 0, 125 UG IN DMSO ADMINISTERED IMMEDIATELY PRIOR TO UV-B IRRADIATION AND 4 AND 24 HR POST IRRADIATION, CYCLE REPEATED 3/, Route [Inhibitor]: SUBCUTANEOUS, Species: MOUSE, Strain/Sex: SKH-1/FEMALE, Target Tissue: Type of Lesion: SKIN: PAPILLOMA, Dose [Carcinogen]: 0.09 J/CM2 3/WK, Promoter: NONE USED) of the same molecule?
**A.** 5/5 (100%), 3/5 (60%), 40%, not calculated
